Legend:
huntingtin aggregates = test: Fluorescence microscopy of huntingtin aggregates in transfected cells; type: cell-based, human; details: HEK293 transfected with pEGFP-Q74; genistein 30, 60 and 100 µM; 48 h; vs DMSO control (Fig. 1)
Experimental: (§1) • Fig. 1. Number and average size of huntingtin aggregates in human embryonic kidney cells transfected with plasmid pEGFP-Q74 (bearing the 1st exon of the HTT gene with 74 CAG repeats), treated with genistein (30, 60 and 100 µM) or DMSO (control cells), in a volume equal to that of genistein, for 48 h. Error bars indicate standard deviation. Statistical analysis was performed with the t-Student test. The differences were considered significant at p<0.05. • Fig. 2. Relative level of mutated huntingtin in human embryonic kidney cells transfected with plasmid pEGFP-Q74 (bearing the 1st exon of the HTT gene with 74 CAG repeats), treated with genistein (30, 60 and 100 µM) or DMSO (control cells), in a volume equal to that of genistein, for 96 h. Actin was used as an internal control. • Fig. 3. […] Intensity of bands was estimated using the Quantity One software. • Fig. 5. Number (calculated per one cell) and volume of acidic organelles in human embryonic kidney cells transfected with plasmid pEGFP-Q74 (bearing the 1st exon of the HTT gene with 74 CAG repeats), treated with genistein (30, 60 and 100 µM) or DMSO (control cells), in a volume equal to that of genistein, for 96 h. […] The co-localization Pearson factor was calculated by using the ImageJ software. […]

mutated huntingtin [1] = test: Western blotting of the mutated huntingtin level; type: cell-based, human; details: HEK293 transfected with pEGFP-Q74; genistein 30, 60 and 100 µM; 96 h; actin internal control (Fig. 2)
Experimental: as §1

mutated huntingtin [2] = test: Western blotting of mutated huntingtin with lysosomal function inhibited by chloroquine; type: cell-based, human; details: in the presence of 10 µM chloroquine; genistein 30, 60 and 100 µM; 96 h; HEK293 transfected with pEGFP-Q74 (Fig. 7)
Experimental: as §1

[3] = system: aggregates of mutated huntingtin with lysosomes; test: Co-localization of mutated huntingtin aggregates with lysosomes (fluorescence microscopy, Pearson coefficient); type: cell-based, human; details: 100 µM genistein; 96 h; HEK293 transfected with pEGFP-Q74; vs DMSO control (Fig. 6)
Experimental: as §1, with “2.” for “2. Relative level of mutated huntingtin in human embryonic kidney cells transfected with plasmid pEGFP-Q74 (bearing the 1st exon of the HTT gene with 74 CAG repeats), treated with genistein (30, 60 and 100 µM) or DMSO (control cells), in a volume equal to that of genistein, for 96 h. Actin was used as an internal control. • Fig. 3.”
In order to test whether mutant huntingtin is transported into lysosomes for degradation, co-localization of aggregates of mutated huntingtin with lysosomes was assessed using a fluorescent microscope (Fig. 6). […]

LC3-II protein = test: Immunodetection (Western blotting) of the autophagy marker LC3-II; type: cell-based, human; details: 96 h
Experimental: as §1

acidic organelles = test: LysoTracker Red staining of acidic organelles (lysosomes), ImageJ analysis; type: cell-based, human; details: 96 h, HEK293 transfected with pEGFP-Q74, LysoTracker Red (Fig. 5)
From the text: • Fig. 1. […] Error bars indicate standard deviation. […] Error bars indicate standard deviation. […] Error bars indicate standard deviation.

[4] = system: human embryonic kidney cells (HEK293) transfected with plasmid pEGFP-Q74; test: MTT viability test of cells transfected with pEGFP-Q74; type: cell-based; details: genistein 30, 60 and 100 µM, 48 h, MTT test (Fig. 3)
Experimental: as §1

O=c1c(-c2ccc(O)cc2)coc2cc(O)cc(O)c12 [genistein, 5,7-dihydroxy-3-(4-hydroxyphenyl)-4H-1-benzopiran-4-one]
number of mutant huntingtin aggregates in cells (huntingtin aggregates): decrease in both size and number
size of mutant huntingtin aggregates in cells (huntingtin aggregates): decrease in both size and number
level of mutant huntingtin in cells (mutated huntingtin [1]): significantly reduces
level of mutated huntingtin (mutated huntingtin [2]): did not change significantly
co-localization of aggregates of mutated huntingtin with lysosomes [3]: increased significantly
LC3-II protein amount (LC3-II protein; HEK293 transfected with pEGFP-Q74, genistein 30, 60 and 100 µM, vs DMSO control (Fig. 4)): genistein-concentration-dependent increase
fold induction at 100 µM (LC3-II protein; Homo sapiens, highest genistein concentration (100 µM), HEK293 transfected with pEGFP-Q74 (Fig. 4), read-out: LC3-II protein level relative to control experiment): ~4
number of acid organelles (acidic organelles; 30 µM genistein): increase is visible
volume of acid organelles (acidic organelles; 30 µM genistein): increase in the volume of acid organelles was evident
number of acid organelles (acidic organelles; 100 µM genistein): difference relative to the control is significant
viability of cells [4]: increase in viability
